IC50 data for 29 molecules are collected here from patent US20250134869A1, “Pyrrolo[2,3-d]pyrimidinyl, Pyrrolo[2,3-b]pyrazinyl and Pyrrolo[2,3-d]pyridinyl Acryla-mides” (Pfizer Inc, priority 2021, published 2025).

Where two headings read alike, the source gives them in different places. A value given as a limit tells only on which side of the number the result lay.

As a reminder, the IC50 is the point on the concentration scale where inhibition reaches its midpoint.

The target in the experiment is JAK3 enzyme (Homo sapiens (Human), UniProt P52333). As to the kind of experiment: JAK Caliper Enzyme Assay at 4 μM or 1 mM ATP. The class given is biochemical. As for the experimental part:
JAK Caliper Enzyme Assay at […] or 1 mM ATP
Test article was solubilized in dimethyl sulfoxide (DMSO) to a stock concentration of 30 mM. An 11-point half log dilution series was created in DMSO with a top concentration of 600 μM. […] The compound plates were diluted 1 to 60 resulting in a top final assay compound concentration of 10 μM and a 2% DMSO concentration.
Test article and assay controls were added to a 384-well plate. Reaction mixtures contained 20 mM HEPES, pH 7.4, 10 mM magnesium chloride, 0.01% bovine serum albumin (BSA), 0.0005% Tween […] or 1 mM ATP and […] peptide substrate. […] The assays were initiated by the addition 1 nM JAK3 enzyme and were incubated at room temperature 75 minutes for JAK3. Enzyme concentrations and incubation times were optimized for each new enzyme preps and were modified slightly over time to ensure 20%-30% phosphorylation. The assays were stopped with a final concentration of 10 mM EDTA, 0.1% Coating Reagent and 100 mM HEPES, pH=7.4. The assay plates were placed on a Caliper Life Science Lab Chip 3000 (LC3000) instrument, and each well was sampled using appropriate separation conditions to measure the unphosphorylated and phosphorylated peptide.

Setting [1] is: read-out: JAK3 (4 μM ATP) IC50, 4 μM ATP.
[2] abbreviates: read-out: JAK3 (1 mM ATP) IC50, 1 mM ATP.

Chain of JAK3 enzyme (P52333 whole entry, species assumed): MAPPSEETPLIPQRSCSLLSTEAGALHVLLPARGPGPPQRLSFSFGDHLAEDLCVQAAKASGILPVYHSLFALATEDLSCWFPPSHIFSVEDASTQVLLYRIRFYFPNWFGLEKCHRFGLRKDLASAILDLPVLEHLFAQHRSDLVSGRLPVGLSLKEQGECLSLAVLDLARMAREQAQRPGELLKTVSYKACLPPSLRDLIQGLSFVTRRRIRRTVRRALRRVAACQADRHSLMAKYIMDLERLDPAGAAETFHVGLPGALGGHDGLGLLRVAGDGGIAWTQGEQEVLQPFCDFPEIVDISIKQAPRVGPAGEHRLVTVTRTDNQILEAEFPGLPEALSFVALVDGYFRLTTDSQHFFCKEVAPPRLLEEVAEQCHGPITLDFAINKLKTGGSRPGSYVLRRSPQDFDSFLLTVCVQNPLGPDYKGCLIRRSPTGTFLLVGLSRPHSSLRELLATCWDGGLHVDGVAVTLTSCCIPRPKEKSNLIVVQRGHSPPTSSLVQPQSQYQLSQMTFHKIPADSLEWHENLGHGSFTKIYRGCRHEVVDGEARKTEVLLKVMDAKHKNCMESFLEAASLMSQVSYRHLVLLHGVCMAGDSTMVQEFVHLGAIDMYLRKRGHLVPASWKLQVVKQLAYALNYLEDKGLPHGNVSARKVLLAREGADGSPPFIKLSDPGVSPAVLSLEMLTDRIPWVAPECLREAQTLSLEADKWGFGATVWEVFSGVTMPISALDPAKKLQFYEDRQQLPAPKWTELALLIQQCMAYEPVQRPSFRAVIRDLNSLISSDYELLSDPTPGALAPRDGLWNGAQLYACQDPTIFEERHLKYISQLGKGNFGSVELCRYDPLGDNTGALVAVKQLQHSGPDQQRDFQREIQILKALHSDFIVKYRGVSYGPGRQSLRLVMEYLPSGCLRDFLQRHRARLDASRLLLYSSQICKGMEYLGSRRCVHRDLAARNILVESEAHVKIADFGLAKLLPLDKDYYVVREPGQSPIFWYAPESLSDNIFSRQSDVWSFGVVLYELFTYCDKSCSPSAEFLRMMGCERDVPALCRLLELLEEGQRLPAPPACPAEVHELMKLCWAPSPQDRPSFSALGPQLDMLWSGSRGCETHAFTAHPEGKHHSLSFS

Turning to `C=CC(=O)N1CCC(Nc2cnc3[nH]cc(-c4ccnc(F)c4)c3n2)CC1` [Example 211, 1-(4-{[7-(2-fluoropyridin-4-yl)-5H-pyrrolo[2,3-b]pyrazin-2-yl]amino}piperidin-1-yl)prop-2-en-1-one], the IC50 was 0.2 nM under setting [1] and 34.2 nM under setting [2].

Take `C=CC(=O)N1C[C@H](Nc2ncnc3[nH]ccc23)[C@H]2CC[C@@H]1C2` [Example 127, 1-((1R,4R,5S)-4-(7H-pyrrolo[2,3-d]pyrimidin-4-ylamino)-2-azabicyclo[3.2.1]octan-2-yl)prop-2-en-1-one]: the IC50 by setting is: under setting [1], 190 nM; under setting [2], over 10000 nM.

For `C=CC(=O)N1CCC(Nc2cnc3[nH]cc(C(=O)NC4CC(F)C4)c3n2)CC1` (stereo not drawn) [Example 243, 2-[(1-acryloylpiperidin-4-yl)amino]-N-(3-fluorocyclobutyl)-5H-pyrrolo[2,3-b]pyrazine-7-carboxamide], the IC50 by setting is: under setting [1], under 0.1 nM; under setting [2], 9 nM.

With `C=CC(=O)N1CCC(Nc2cnc3[nH]cc(-c4ccccc4)c3n2)CC1` [Example 209, 1-{4-[(7-phenyl-5H-pyrrolo[2,3-b]pyrazin-2-yl)amino]piperidin-1-yl}prop-2-en-1-one], the IC50 is, setting by setting: under setting [1], 0.2 nM; under setting [2], 14.3 nM.

On to `C=CC(=O)N1CCC(Nc2cnc3[nH]cc(C(=O)NC(C)(C)CC)c3n2)CC1` [Example 276, 2-[(1-acryloylpiperidin-4-yl)amino]-N-(2-methylbutan-2-yl)-5H-pyrrolo[2,3-b]pyrazine-7-carboxamide], for which the concentration for half-maximal inhibition (IC50) under setting [1] was under 0.3 nM and the IC50 under setting [2] worked out at 11.1 nM.

Turning to `C=C(C)C(=O)N1CCC[C@@H](Nc2ncnc3[nH]cc(Cc4ccc(O)cc4)c23)C1` [Example 139, 1-[(3R)-3-{[5-(4-hydroxybenzyl)-7H-pyrrolo[2,3-d]pyrimidin-4-yl]amino}piperidin-1-yl]-2-methylprop-2-en-1-one], the IC50 under setting [1] turned out to be 83.1 nM.

`C=CC(=O)N1CCC(Nc2cnc3[nH]cc(-c4cccc(C(=O)NC)c4)c3n2)CC1` [Example 204, 3-{2-[(1-acryloylpiperidin-4-yl)amino]-5H-pyrrolo[2,3-b]pyrazin-7-yl}-N-methylbenzamide]: the IC50 came out at 0.5 nM under setting [1] and 49.3 nM under setting [2].

Regarding `C=CC(=O)N1CCC[C@@H](Nc2ncnc3[nH]cc(CC(C)(C)O)c23)C1` [Example 53, (R)-1-(3-((5-(2-Hydroxy-2-methylpropyl)-7H-pyrrolo[2,3-d]pyrimidin-4-yl)amino)piperidin-1-yl)prop-2-en-1-one], the IC50 reads like this: under setting [1], 4 nM; under setting [2], 192 nM.

`CC/C=C(\C#N)C(=O)N1CCC[C@@H](Nc2ncnc3[nH]ccc23)C1` [Example 99, (2E)-2-{[(3R)-3-(7H-pyrrolo[2,3-d]pyrimidin-4-ylamino)piperidin-1-yl]carbonyl}pent-2-enenitrile]: the IC50 under setting [1] stood at 255 nM and the IC50 under setting [2] was over 10000 nM.

`C=CC(=O)N1CCC(Nc2cnc3[nH]cc(C(=O)N[C@H](CC)CC#N)c3n2)CC1` [Example 263, 2-[(1-acryloylpiperidin-4-yl)amino]-N-[(2R)-1-cyanobutan-2-yl]-5H-pyrrolo[2,3-b]pyrazine-7-carboxamide]: the IC50 stood at 0.2 nM under setting [1] and 8.7 nM under setting [2].

In the case of `C=CC(=O)N1C[C@H](Nc2ncnc3[nH]ccc23)C[C@@H](N(C)C)C1` [Example 88, 1-[(3R,5R)-3-(Dimethylamino)-5-(7H-pyrrolo[2,3-d]pyrimidin-4-ylamino)piperidin-1-yl]prop-2-en-1-one], the IC50 under setting [1] came out at 18.2 nM and the half-inhibitory concentration (IC50) under setting [2] stood at 3390 nM.

Take `C=CC(=O)N1CCC(Nc2cnc3[nH]cc(-c4cnc(OC)nc4)c3n2)CC1` [Example 210, 1-(4-{[7-(2-methoxypyrimidin-5-yl)-5H-pyrrolo[2,3-b]pyrazin-2-yl]amino}piperidin-1-yl)prop-2-en-1-one]: the IC50 is, setting by setting: under setting [1], 0.4 nM; under setting [2], 45.4 nM.

Consider `C=CC(=O)N1CCC(Nc2cnc3[nH]cc(C(=O)N4CCC4)c3n2)CC1` [Example 284, 1-(4-{[7-(azetidin-1-ylcarbonyl)-5H-pyrrolo[2,3-b]pyrazin-2-yl]amino}piperidin-1-yl)prop-2-en-1-one], for which the IC50 is 1.9 nM under setting [1] and 176 nM under setting [2].

As to `C=CC(=O)N1CCC(Nc2cnc3[nH]cc(C(=O)N[C@@H]4CC[C@H](F)C4)c3n2)CC1` [Example 255, 2-[(1-acryloylpiperidin-4-yl)amino]-N-[(1R,3S)-3-fluorocyclopentyl]-5H-pyrrolo[2,3-b]pyrazine-7-carboxamide], the IC50 under setting [1] was determined as 0.3 nM and the IC50 under setting [2] turned out to be 9.7 nM.

With `C=CC(=O)N1CCC[C@@H](Nc2ncnc3[nH]cc(/C=C/c4ccoc4)c23)C1` [Example 38, 1-[(3R)-3-({5-[(E)-2-(furan-3-yl)ethenyl]-7H-pyrrolo[2,3-d]pyrimidin-4-yl}amino)piperidin-1-yl]prop-2-en-1-one], the IC50 under setting [1] was determined as 3250 nM.

For the molecule `C=CC(=O)N1C[C@H](Nc2ccnc3[nH]cc(C#N)c23)CC[C@@H]1C` [Example 165, 4-{[(3R,6S)-1-Acryloyl-6-methylpiperidin-3-yl]amino}-1H-pyrrolo[2,3-b]pyridine-3-carbonitrile], the IC50 under setting [1] worked out at 0.5 nM and the IC50 under setting [2] was found to be 22.7 nM.

In the case of `C=CC(=O)N1CCC(Nc2cnc3[nH]cc(C(=O)NCC4(O)CCCC4)c3n2)CC1` [Example 232, 2-[(1-acryloylpiperidin-4-yl)amino]-N-[(1-hydroxycyclopentyl)methyl]-5H-pyrrolo[2,3-b]pyrazine-7-carboxamide], the IC50 under setting [1] stood at 0.3 nM and the IC50 under setting [2] was determined as 25 nM.

With `C=CC(=O)N1CCC(Nc2cnc3[nH]cc(C(=O)NCC(F)(F)F)c3n2)CC1` [Example 273, 2-[(1-acryloylpiperidin-4-yl)amino]-N-(2,2,2-trifluoroethyl)-5H-pyrrolo[2,3-b]pyrazine-7-carboxamide], the IC50 is, setting by setting: under setting [1], 0.4 nM; under setting [2], 11.4 nM.

Turning to `C=CC(=O)N1C[C@H](Nc2ncnc3[nH]ccc23)C[C@@H](OC)C1` [Example 77, 1-[(3R,5R)-3-Methoxy-5-(7H-pyrrolo[2,3-d]pyrimidin-4-ylamino)piperidin-1-yl]prop-2-en-1-one], the IC50 is, setting by setting: under setting [1], 15.5 nM; under setting [2], 2070 nM.

Take `C=CC(=O)N1CCC(Nc2cnc3[nH]cc(C(=O)N[C@@H](C)CCC)c3n2)CC1` [Example 267, 2-[(1-acryloylpiperidin-4-yl)amino]-N-[(2S)-pentan-2-yl]-5H-pyrrolo[2,3-b]pyrazine-7-carboxamide]: the half-maximal inhibitory concentration (IC50) runs as follows: under setting [1], 0.3 nM; under setting [2], 9 nM.

Take `C=CC(=O)N1CCC(Nc2cnc3[nH]cc(-c4cnc(N5CCOCC5)nc4)c3n2)CC1` [Example 208, 1-[4-({7-[2-(morpholin-4-yl)pyrimidin-5-yl]-5H-pyrrolo[2,3-b]pyrazin-2-yl}amino)piperidin-1-yl]prop-2-en-1-one]: the IC50 came to 5.9 nM under setting [1] and 576 nM under setting [2].

As to `C=CC(=O)N1CCC[C@@H](Nc2ncnc3[nH]cc(C=C)c23)C1` [Example 40, 1-{(3R)-3-[(5-ethenyl-7H-pyrrolo[2,3-d]pyrimidin-4-yl)amino]piperidin-1-yl}prop-2-en-1-one], the half-inhibitory concentration (IC50) under setting [1] was over 10000 nM.

As for `C=CC(=O)N1CCC(Nc2cnc3[nH]cc(C(=O)NCC4(O)CCCC(F)(F)C4)c3n2)CC1` (stereo not drawn) [Example 249, 2-[(1-acryloylpiperidin-4-yl)amino]-N-[(3,3-difluoro-1-hydroxycyclohexyl)methyl]-5H-pyrrolo[2,3-b]pyrazine-7-carboxamide], the half-inhibitory concentration (IC50) runs as follows: under setting [1], 0.6 nM; under setting [2], 47 nM.

On to `C/C=C/C(=O)N1CCC[C@@H](Nc2ncnc3[nH]cc(CCOC)c23)C1` [Example 109, (2E)-1-[(3R)-3-{[5-(2-methoxyethyl)-7H-pyrrolo[2,3-d]pyrimidin-4-yl]amino}pipendin-1-yl]but-2-en-1-one], for which, under setting [1], the IC50 worked out at 2820 nM.

Take `C=CC(=O)N1CCC[C@@H](Nc2ncnc3[nH]cc(-c4cncc(OC)c4)c23)C1` [Example 24, 1-[(3R)-3-{[5-(5-methoxypyridin-3-yl)-7H-pyrrolo[2,3-d]pyrimidin-4-yl]amino}piperidin-1-yl]prop-2-en-1-one]: the half-maximal inhibitory concentration (IC50) is 1.2 nM under setting [1] and 98.1 nM under setting [2].

With `C=CC(=O)N1CCC[C@@H](Nc2ncnc3[nH]cc(F)c23)C1` [Example 42, 1-{(3R)-3-[(5-fluoro-7H-pyrrolo[2,3-d]pyrimidin-4-yl)amino]piperidin-1-yl}prop-2-en-1-one], the IC50 is, setting by setting: under setting [1], 0.9 nM; under setting [2], 94.4 nM.

As for `C/C=C\C(=O)N1CCC[C@@H](Nc2ncnc3[nH]ccc23)C1` [Example 102, (2Z)-1-[(3R)-3-(7H-pyrrolo[2,3-d]pyrimidin-4-ylamino)piperidin-1-yl]but-2-en-1-one], the IC50 under setting [1] was determined as 353 nM and the IC50 under setting [2] was over 10000 nM.

Take `C=CC(=O)N1CC(Nc2cnc3[nH]ccc3n2)C1` [Example 337, 1-(3-((5H-Pyrrolo[2,3-b]pyrazin-2-yl)amino)azetidin-1-yl)prop-2-en-1-one]: the IC50 runs as follows: under setting [1], 1.1 nM; under setting [2], 95.6 nM.

As for `C=CC(=O)N1CCC(Nc2cnc3[nH]cc(C(=O)N[C@@H]4CCC[C@@H]4F)c3n2)CC1` [Example 251, 2-[(1-acryloylpiperidin-4-yl)amino]-N-[(1R,2S)-2-fluorocyclopentyl]-5H-pyrrolo[2,3-b]pyrazine-7-carboxamide], the IC50 under setting [1] amounted to 0.2 nM and the half-maximal inhibitory concentration (IC50) under setting [2] turned out to be 8.1 nM.
